# From US11752154B2, “Pharmaceutical compositions comprising sepiapterin and uses thereof” (PTC Therapeutics MP, Inc., priority 2017, dated 2023)
# What was measured:
# [1] = Determination of BH4 and sepiapterin levels in plasma, liver, kidney and urine after sepiapterin or BH4 (Example 4); assay type: in vivo; details: for kidney, liver and urine exposure to BH4 versus dose level: 20, 60 or 180 mg/kg
# Method: Animals were administered the test items, sepiapterin or BH4, at dose levels of 20, 60 or 180 mg/kg. Blood, liver, kidney and urine samples (where possible) were collected from 3 animals/timepoints/group on the day of dosing at 0 (pre-dose, controls only), 0.5, 1, 2, 4, and 8 hours post-dose. Samples were assayed for sepiapterin or BH4 (not quantified in plasma) and non-compartmental pharmacokinetic analysis was performed.
# [2] = Stability analysis of salts and/or co-crystals of sepiapterin (Example 7); assay type: physicochemical; details: 25° C./60% RH and 40° C./75% RH, two weeks
# Method: The stability of the prepared salts and/or co-crystals was analyzed after […] at 25° C. and 60% relative humidity and 40° C. and 75% relative humidity. […] None of the phosphate, tartrate, or nicotinate salts and/or co-crystals underwent a form change during the stability testing, and each of them retained greater than 97% purity over the two weeks of the study. In fact, both the tartrate and nicotinate both retained greater than 99% purity.
# [3] = Kinetic solubility and disproportionation of sepiapterin salts and/or co-crystals in water and Medisca Oral Mix (Example 8); assay type: physicochemical; details: for Solubility / Form change / Purity (area %) / solubility at 1 hr / solubility at 4 hr / solubility at 24 hr: RT; for Solubility / solubility at 1 hr / solubility at 4 hr / solubility at 24 hr: calculated using freebase, target conc. ~7 mg/mL; for Form change: residual solids by XRPD; for Purity (area %): supernatant, for reference only; for form of residual solids: water and Medisca Oral Mix, after 1 hour; for solubility at 1 hr / solubility at 4 hr / solubility at 24 hr: thermodynamic from solid
# Method: The kinetic solubility was evaluated for nicotinate, phosphate, L-tartrate, and fumarate salts and/or co-crystals of sepiapterin in water and Medisca Oral Mix. X-ray powder diffraction (XRPD) was performed for the residual solids to identify form change/disproportionation. Solids were suspended into the media with target conc. of ˜7 mg/mL (calculated by freebase). The suspensions were agitated on a rolling incubator at 25 rpm for 1, 4 and 24 hrs. At each time point, 1 mL of the suspension was pipetted out for centrifugation at 10000 rpm (2 min) and filtration through 0.45 μm membrane to obtain supernatant for HPLC solubility and pH tests, the residual solids were analyzed by XRPD.
# [4] = Medisca Oral Mix, 1 hr, listed as L-tartrate salt and/or co-crystal
# [5] = Water, 1 hr, listed as L-tartrate salt and/or co-crystal
# [6] = Water, 4 hr, listed as L-tartrate salt and/or co-crystal
# [7] = Water, 24 hr, listed as L-tartrate salt and/or co-crystal
# [8] = Medisca Oral Mix, 24 hr, listed as phosphate salt and/or co-crystal
# [9] = Water, 1 hr, listed as phosphate salt and/or co-crystal
# [10] = Water, 4 hr, listed as phosphate salt and/or co-crystal
# [11] = Water, 24 hr, listed as phosphate salt and/or co-crystal
smiles,measurement,setting,value
"C[C@H](O)[C@H](O)[C@H]1CNc2nc(N)[nH]c(=O)c2N1 [BH4, tetrahydrobiopterin, reference compound]","kidney, liver and urine exposure to BH4 versus dose level",[1],decreased as the dose level increased
C[C@H](O)C(=O)C1=Nc2c(nc(N)[nH]c2=O)NC1 [L-Tartrate],form change during the stability testing,[2],None
same,Solubility,[3]; [4],2000 µg/mL
same,Solubility,[3]; [5],1600 µg/mL
same,Solubility,[3]; [6],1800 µg/mL
same,Solubility,[3]; [7],1800 µg/mL
same,Form change,"[3]; Medisca Oral Mix, 1 hr, ** = low crystallinity, listed as L-tartrate salt and/or co-crystal",Yes
same,Form change,"[3]; Medisca Oral Mix, 4 hr, ** = low crystallinity, listed as L-tartrate salt and/or co-crystal",Yes
same,Form change,"[3]; Medisca Oral Mix, 24 hr, ** = low crystallinity, listed as L-tartrate salt and/or co-crystal",Yes
same,Form change,[3]; [5],Yes
same,Form change,[3]; [6],Yes
same,Form change,[3]; [7],Yes
same,Purity (area %),[3]; [4],99.68 area %
same,Purity (area %),"[3]; Medisca Oral Mix, 4 hr, listed as L-tartrate salt and/or co-crystal",99.54 area %
same,Purity (area %),"[3]; Medisca Oral Mix, 24 hr, listed as L-tartrate salt and/or co-crystal",95.67 area %
same,Purity (area %),[3]; [5],99.34 area %
same,Purity (area %),[3]; [6],99.07 area %
same,Purity (area %),[3]; [7],95.61 area %
same,form of residual solids,[3],converted to freebase
C[C@H](O)C(=O)C1=Nc2c(nc(N)[nH]c2=O)NC1 [Nicotinate],form change during the stability testing,[2],None
same,solubility at 1 hr,"[3]; Medisca Oral Mix, aqueous with cosolvent or surfactant or cyclodextrin, 1 hr",2600 µg/mL
same,solubility at 4 hr,"[3]; Medisca Oral Mix, aqueous with cosolvent or surfactant or cyclodextrin, 4 hr",3100 µg/mL
same,solubility at 24 hr,"[3]; Medisca Oral Mix, aqueous with cosolvent or surfactant or cyclodextrin, 24 hr",3500 µg/mL
same,Form change,"[3]; Medisca Oral Mix, 1 hr, ** = low crystallinity, listed as nicotinate salt and/or co-crystal",Yes
same,Form change,"[3]; Medisca Oral Mix, 4 hr, ** = low crystallinity, listed as nicotinate salt and/or co-crystal",Yes
same,Form change,"[3]; Medisca Oral Mix, 24 hr, ** = low crystallinity, listed as nicotinate salt and/or co-crystal",Yes
same,Form change,"[3]; Water, 1 hr, listed as nicotinate salt and/or co-crystal",Yes
same,Form change,"[3]; Water, 4 hr, listed as nicotinate salt and/or co-crystal",Yes
same,Form change,"[3]; Water, 24 hr, listed as nicotinate salt and/or co-crystal",Yes
same,form of residual solids,[3],converted to freebase
same,solubility at 1 hr,"[3]; water, 1 hr",1500 µg/mL
same,solubility at 4 hr,"[3]; water, 4 hr",2300 µg/mL
same,solubility at 24 hr,"[3]; water, 24 hr",1800 µg/mL
C[C@H](O)C(=O)C1=Nc2c(nc(N)[nH]c2=O)NC1 [Phosphate],form change during the stability testing,[2],None
same,Solubility,[3]; [8],2100 µg/mL
same,Solubility,[3]; [9],1700 µg/mL
same,Solubility,[3]; [10],2000 µg/mL
same,Solubility,[3]; [11],1900 µg/mL
same,Form change,"[3]; Medisca Oral Mix, 1 hr, ** = low crystallinity, listed as phosphate salt and/or co-crystal",Yes**
same,Form change,"[3]; Medisca Oral Mix, 4 hr, ** = low crystallinity, listed as phosphate salt and/or co-crystal",Yes**
same,Form change,"[3]; Medisca Oral Mix, 24 hr, ** = low crystallinity, listed as phosphate salt and/or co-crystal",Yes**
same,Form change,[3]; [9],Yes
same,Form change,[3]; [10],Yes
same,Form change,[3]; [11],Yes
same,Purity (area %),"[3]; Medisca Oral Mix, 1 hr, listed as phosphate salt and/or co-crystal",99.23 area %
same,Purity (area %),"[3]; Medisca Oral Mix, 4 hr, listed as phosphate salt and/or co-crystal",98.95 area %
same,Purity (area %),[3]; [8],87.63 area %
same,Purity (area %),[3]; [9],89.92 area %
same,Purity (area %),[3]; [10],89.52 area %
same,Purity (area %),[3]; [11],82.64 area %
same,form of residual solids,[3],converted to freebase
C[C@H](O)C(=O)C1=Nc2c(nc(N)[nH]c2=O)NC1 [sepiapterin],"kidney, liver and urine exposure to BH4 versus dose level",[1],decreased as the dose level increased
same,kidney BH4 Cmax following sepiapterin administration versus BH4 alone,[1]; except at the high-dose,similar
same,secondary peak of absorption (plasma sepiapterin),"[1]; low- and mid-dose levels, post-dose",8 h
same,sepiapterin exposure amongst the analyzed matrices,"[1]; plasma, liver, kidney, urine",highest in urine
same,dose proportionality of circulating sepiapterin exposure,"[1]; plasma, entire dose range",much greater than dose proportional
same,time of maximum sepiapterin plasma concentrations,"[1]; post-dose, sepiapterin 20, 60 or 180 mg/kg",30 minutes or 2 hours
same,sepiapterin detected in the liver and kidney,"[1]; sepiapterin 20, 60 or 180 mg/kg",only at 30 minutes post-dose and only in the liver for the mid- or high-dose
same,dose proportionality of sepiapterin exposure,"[1]; urine, liver and kidney, entire dose range",less than dose proportional
